PMC12040169 (PLOS Biology, 2025)

Assay: in vitro
Details: human, hela cells

SMILES | viability at 28.5 h, 10 µM [%]
NC(=O)COC(=O)COc1ccc(Cl)cc1Cl [CBK058628] | 85.8

Same assay, conditions: human, hela cells, % viability

SMILES | viability at 28.5 h, 10 µM [%]
COC(=O)CNC(=O)c1ccncc1Br [CBK057760] | 101
Cc1noc(C)c1C(=O)N1CCOCC1 [CBK057765] | 80.5
Cc1nc(COc2ccccc2Cl)sc1-c1ccnc(N)n1 [CBK057769] | 91.3
Cn1nc(NC(=O)c2ccco2)c2c(F)cccc21 [CBK057774] | 93.7
CN1CCN(S(=O)(=O)c2ccc(-c3cc(C(F)(F)F)on3)s2)CC1 [CBK057780] | 96
CC1=C(C(=O)Nc2ccc(Cl)cc2Cl)SCCO1 [CBK057784] | 96.5
COc1ccccc1N1CCN(C(=O)c2snnc2C)CC1 [CBK057792] | 92.8
Cc1nc(COc2ccccc2)nc(O)c1Cl [CBK057810] | 95.2
COC(=O)c1c(C)n[nH]c1COc1ccccc1 [CBK057823] | 92.1
CCCc1ccc(C(C)NC(=O)C2CC2C)cc1 (stereo not shown) [CBK057847] | 82.4
Cc1nn(C)cc1C(=O)NC1CCCC1 [CBK057851] | 112
Cn1nnnc1SCC(=O)Nc1cc(F)ccc1F [CBK057872] | 79.9
CCCc1cc(C(=O)OC)c(NC(=O)C2C3CCC(C3)C2C(=O)O)s1 (stereo not shown) [CBK057885] | 98.5
COc1ccc(NC(=O)c2sc(Cl)nc2C)cc1 [CBK057902] | 97.1
O=C(CSC1=NCCS1)Nc1ccc(Cl)cn1 [CBK057917] | 84
O=C(Nc1nnc(C2CCCCC2)s1)c1ccccc1I [CBK057918] | 114
O=C(NCCOc1ccc(F)cc1)c1cccs1 [CBK057930] | 116
CCc1nnc(NC(=O)CCc2ccccc2)s1 [CBK057943] | 86.1
CC(=O)c1sc(NC(=O)c2ccc(Br)o2)nc1C [CBK057948] | 91.6
Nc1nc(SCC(=O)NCCCO)nc2sc3c(c12)CCCC3 [CBK057958] | 87.8
Cc1ccc2[nH]c(SCC(=O)NC3CCCC3)nc2c1 [CBK057983] | 90
O=C(CSc1ncnc2c1oc1ccccc12)Nc1ccccc1 [CBK057994] | 93.4
CN(C)CCCOc1ccc2c(c1)Sc1ccccc1CC2=O [CBK058002] | 95.4
O=C(COc1ccccc1)Nc1nccs1 [CBK058018] | 93.4

SMILES | viability at 28.5 h, 10 µM [%]
O=C(CSc1ccccc1)NCc1ccncc1 [CBK058023] | 96.7
CN(C)S(=O)(=O)c1cccnc1OCC(O)CNC(C)(C)C (stereo not shown) [CBK058059] | 84.5
CC(CN1CCCCC1)OC(=O)COc1ccc(F)cc1 (stereo not shown) [CBK058066C] | 93.6
Cc1cc(NC(=O)c2cc(C)oc2C)no1 [CBK058081] | 88.7
CCC(C)c1ccc(NC(=O)CSc2nnnn2C)cc1 (stereo not shown) [CBK058085] | 122
COC(=O)Nc1ccc(S(=O)(=O)N2CCCCC2C(=O)O)cc1 (stereo not shown) [CBK058086] | 106
CCCc1cc(C(=O)OC)c(NC(=O)c2c(C)noc2C)s1 [CBK058088] | 92.5
CN(C(=O)CSc1nnn(C)n1)c1ccccc1 [CBK058129] | 117
O=C(Nc1ccccc1)c1cccc(S(=O)(=O)NCc2cccs2)c1 [CBK058153] | 87.1
Cc1cc(-c2ccccc2)nc(SCC(=O)Nc2nnc(C)s2)n1 [CBK058194] | 87.3
CCCNC(=O)COc1ccc(CC)cc1 [CBK058199] | 93.9
Cn1nnnc1SCC(=O)Nc1ccc(Cl)c(Cl)c1 [CBK058218] | 108
O=C(Nc1ccc(Cl)cc1Cl)C1CC2CCC1C2 (stereo not shown) [CBK058237] | 102
CCCC(CCC)C(=O)Nc1ccc(NC(=O)c2ccco2)c(C)c1 [CBK058263] | 91.9
CC1Cc2ccccc2N1C(=O)c1nn(C)cc1I (stereo not shown) [CBK058268] | 97.3
CCc1nnc(NC(=O)c2cc(OC)c(OC)c(OC)c2)s1 [CBK058342] | 93.1
CCC(Sc1nccn1C)C(=O)Nc1ccc(S(N)(=O)=O)cc1 (stereo not shown) [CBK058413] | 107
Cn1c(CNC2CCCCC2)nc2ccccc21 [CBK058416] | 111
CCC(C)(C)c1nnc(NC(=O)COc2ccc(Cl)cc2Cl)s1 [CBK058435] | 103
O=C1CC(C(=O)Nc2c(Cl)cccc2Cl)C2(CCCCC2)O1 (stereo not shown) [CBK058445] | 95.9
Nc1nonc1C(=O)NCCNC(=O)c1ccco1 [CBK058480] | 99.1
COc1cc(C(=O)NCc2ccccn2)cc(OC)c1OC [CBK058552] | 88.3
Ic1ccc(NCc2cn3ccccc3n2)cc1 [CBK058563] | 91.4
O=C(NCc1ccccn1)Nc1cccc(Cl)c1 [CBK058569] | 95.9

SMILES | viability at 28.5 h, 10 µM [%]
O=C(O)CCC(=O)Nc1ccccc1C(=O)Nc1ccccc1 [CBK058571] | 92.4
O=C(NCC1CCCO1)c1sc2ccccc2c1Cl (stereo not shown) [CBK058604] | 93.3
c1ccc(CNc2nc(-c3ccncc3)cs2)cc1 [CBK058609] | 91
O=C(Nc1ncc(Cc2ccc(F)cc2)s1)C1CCCCC1 [CBK058611] | 105
COc1ccc(NC(=O)CSc2nnc(N)s2)cc1 [CBK058635] | 104
O=C(Nc1nc2ccccc2s1)c1cnccn1 [CBK058664] | 83.9
O=C(Nc1ccccc1)c1onc2c1CCCC2 [CBK058703] | 108
Cc1ccc(N(CC(=O)NCC2CCCO2)S(C)(=O)=O)cc1 (stereo not shown) [CBK058709] | 88.1
CCC(=O)NC(=S)Nc1cccc(NC(=O)c2cccc(Cl)c2)c1 [CBK058759] | 93.6
COC(=O)C(CC(C)C)Nc1nc(OC)cc(OC)n1 (stereo not shown) [CBK058765] | 121
Cc1cc(C)cc(NC(=O)C2C3C4CCC(C4)C23)c1 (stereo not shown) [CBK058768] | 108
Cn1nnnc1NC(=O)c1ccccc1F [CBK058776] | 102
CC(CNCC1CCCO1)COc1cccc(Cl)c1 (stereo not shown) [CBK058789] | 96
O=[N+]([O-])c1ccccc1S(=O)(=O)NCCSCc1ccc(Cl)c(Cl)c1 [CBK058810] | 104
CCOc1ccccc1NC(C)CC(=O)O (stereo not shown) [CBK058826] | 82.8
CCOC(=O)c1sc(NC(=O)C2CCCO2)c(C(N)=O)c1C (stereo not shown) [CBK058830] | 91.3
Cc1cc(C)nc(NC(=O)C2C3C=CC(C3)C2C(=O)O)c1 (stereo not shown) [CBK058843] | 104
O=C(c1ccc(COc2ccc(I)cc2)cc1)N1CCCCCC1 [CBK058852] | 83.4
O=C(O)C1C2C=CC(O2)C1C(=O)NCc1ccccn1 (stereo not shown) [CBK058859] | 99.1
CC1=NN(C(=O)c2c(Cl)c(C)nn2C)C(O)(C(F)(F)F)C1 (stereo not shown) [CBK058892] | 117
CC1=NN(C(=O)c2ccc(Cl)cc2)C(C)(C)C1 [CBK058904] | 111
O=C(NC1=NCCS1)c1cc2ccccc2o1 [CBK058927] | 80.8
O=C(Cc1cccc(F)c1)N1CCOCC1 [CBK058928] | 83.9
CCOC(=O)COc1ccc(C#N)cc1OCC [CBK058937] | 103
